Consider 16 molecules from US5304556A, “Benza-triazinone derivatives” (Mitsubishi Kasei Corporation, priority 1991, dated 1994).

Each structure is given as a SMILES string. Like-named read-outs stand apart in the source and are kept apart here.

The conditions of data set [1]: Kokai Sho 60-132928, Table 2; cited from earlier work.
Data set [2] relates to Rabbit platelet aggregation induced by PAF. The data set can be described thus: Rabbit platelet aggregation inhibitory activity (PAF-induced). Type of data set: cell-based, rabbit (New Zealand white). The following applies: Oryctolagus cuniculus, read-out: Rabbit Platelet Aggregation Inhibitory activity IC50. The protocol: To 0.9 volume of blood collected from jugular vein of a New Zealand white male rabbit weighing from 2.5 to 3.5 kg was added 0.1 volume of 3.8% aqueous sodium citrate, and the mixture was centrifuged at 110 xg for 15 minutes to give PRP ([…]). Assay of platelet aggregation induced by PAF was effected using 4 channels aggregometer (Manufacturer: Nicoh Bioscience Co.) according to Bohn et al, Turbidimetry [J. Physiology, Vol. 168, p.178, 1963]. […] The final concentration of PAF in the reaction mixture was adjusted to 10^-10 M.

For data set [3], the system named is mouse death due to shock induced by PAF. Kind of data set: Activity to mouse death due to shock induced by PAF. The class given is in vivo. To be noted: male ICR mouse; oral 1 hour prior to i.v. 100 μg/kg PAF; survival at 24 hours. The protocol:
Test was effected according to Young et al. method, Prostaglandins, Vol. 30, p.545, 1985. Lethal test was effected by treating starved male ICR mouse weighing from 25 g to 30 g with PAF without anesthesia. Test Compound was orally administered 1 hour prior to tail intravenous administration of 100 μg/kg of PAF. Survival rate of the test animal was examined 24 hours after intravenous administration of PAF.

Data set [4] deals with contraction of the respiratory tract due to PAF. The data set can be described thus: Activity to contraction of the respiratory tract of guinea pig due to PAF. Type of data set: in vivo, guinea pig (Hartley). To be noted: Cavia porcellus, read-out: Activity to Contraction of the Respiratory Tract of Guinea Pig due to PAF ED50. The protocol:
Hartley male guinea pigs weighing from 350 g to 500 g were anesthetized by intraperitoneal administration of 50 mg/kg of sodium pentobarbital. Contraction of the respiratory tract was measured by inserting a cannula into trachea and measuring under artificial ventilation according to Conzet et al, Arch. […] 71. Test compound was orally administered 1 hour prior to intravenous administration of 0.3 μg/kg of PAF.

The next data set in a line: Acute toxicity. To be noted: in vivo; male and female SD (CD) rat; oral, 0.5% aqueous CMC-Na suspension; observed 14 days.
Data set [5] has as its system thromboxane synthetase enzyme. To be noted: Kokai Sho 63-316778, Table 1; cited from earlier work.
[6] abbreviates: rabbit PRP, PAF final concentration 10^-10 M.
Where [7] appears, read: Hartley male guinea pig, oral 1 hour prior to i.v. 0.3 μg/kg PAF.

As to `CN1C(=O)c2ccc(Oc3ccc(C(F)(F)F)cc3Cl)cc2C1=O`, the herbicidal activity entry in data set [1] was “shows herbicidal activity”.
As to `Cc1nnc2n1-c1sc(CCC(=O)N3CCOCC3)cc1C(c1ccccc1Cl)=NC2` [WEB2086, reference compound], the IC50 in data set [2] was found to be 40 nM. The ED50 in data set [3] worked out at 1 mg/kg; in data set [4] (po, 1 h), 0.15 mg/kg.
Turning to `O=c1c2cc(Oc3ccc(Cl)cc3)ccc2nnn1Cc1cccnc1` [compound 2, 6-(4-chlorophenoxy)-3-(3-pyridylmethyl)-1,2,3-benzotriazin-4 (3H)-one], the IC50 in data set [2] (setting [6]) is 26 nM. In addition, the ED50 in data set [3] was 2.1 mg/kg; in data set [4] (setting [7]), 0.15 mg/kg. Besides, in “Acute toxicity”, the median lethal dose (LD50) at 336 h is greater than 2000 mg/kg.
As for `O=C1c2ccc(Oc3ccc(Cl)cc3)cc2C(=O)N1Cc1cccnc1` [compound 25, 5-(4-chlorophenoxy)-2-(3-pyridylmethyl)-1H-isoindole-1,3 (2H)-dione], the IC50 in data set [2] (setting [6]) came out at 10 nM. Moreover, the values for the ED50 in data set [3] and in data set [4] (setting [7]) were 1.3 mg/kg and 0.14 mg/kg, respectively. Further, the 50% lethal dose (LD50) at 336 h in the data set “Acute toxicity” was greater than 2000 mg/kg.
As for `O=C(c1ccc(Cl)cc1)c1ccc2c(c1)C(=O)N(Cc1cccnc1)C2=O` [compound 45, 5-(4-chlorobenzoyl)-2-(3-pyridylmethyl)-1H-isoindole-1,3 (2H)-dione], the concentration for half-maximal inhibition (IC50) in data set [2] (setting [6]) came to 19 nM. This molecule also came in with an ED50 in data set [3] of 0.6 mg/kg.
In the same order, the values of `O=C1c2ccc(-c3cccc4ccccc34)cc2C(=O)N1Cc1cccnc1` [compound 50, 5-(1-naphthyl)-2-(3-pyridylmethyl)-1H-isoindole-1,3 (2H)-dione] are 24 nM and 0.32 mg/kg.
As to `O=C1c2ccc(N(c3ccc(Cl)cc3)c3ccc(Cl)cc3)cc2C(=O)N1Cc1cccnc1` [compound 60, 5-[N,N-bis (4-chlorophenyl)amino]-2-(3-pyridylmethyl)-1H-isoindole-1,3(2H)-dione], the concentration for half-maximal inhibition (IC50) in data set [2] (setting [6]) was found to be 2.6 nM. The median effective dose (ED50) in data set [3] and in data set [4] (setting [7]) was 0.019 mg/kg in each case. The same molecule displayed an LD50 at 336 h in the data set “Acute toxicity” greater than 2000 mg/kg.
For `N#Cc1ccc(N(c2ccc(C#N)cc2)c2ccc3c(c2)C(=O)N(Cc2cccnc2)C3=O)cc1` [compound 63, 5-[N,N-bis (4-cyanophenyl)amino]-2-(3-pyridylmethyl)-1H-isoindole-1,3 (2H)-dione], the IC50 in data set [2] (setting [6]) amounted to 1.7 nM. For the same molecule, the median effective dose (ED50) in data set [3] came out at 0.007 mg/kg; in data set [4] (setting [7]) it was 0.006 mg/kg. The LD50 at 336 h in “Acute toxicity” was greater than 2000 mg/kg.
For `O=C1c2ccc(C(c3ccc(Cl)cc3)c3ccc(Cl)cc3)cc2C(=O)N1Cc1cccnc1` [compound 68, 5-[bis (4-chlorophenyl)methyl]-2-(3-pyridylmethyl)-1H-isoindole-1,3 (2H)-dione], the concentration for half-maximal inhibition (IC50) in data set [2] (setting [6]) was found to be 1.8 nM.
On to `O=C1c2cccc(Oc3ccc(Cl)cc3)c2C(=O)N1Cc1cccnc1` [compound 72, 4-(4-chlorophenoxy)-2-(3-pyridylmethyl)-1H-isoindole-1,3 (2H)-dione], for which the IC50 in data set [2] (setting [6]) is 32 nM. The molecule also returned a 50% effective dose (ED50) in data set [3] of 0.4 mg/kg.
`O=C1c2cc(Oc3ccc(Cl)cc3)ccc2CCN1Cc1cccnc1` [compound 84, 7-(4-chlorophenoxy)-3,4-dihydro-2-(3-pyridylmethyl)-1 (2H)-isoquinolinone]: the IC50 in data set [2] (setting [6]) was 10 nM.
Consider `O=C1c2cc(Oc3ccc(F)cc3)ccc2CN1Cc1cccnc1` [compound 125, 2,3-dihydro-6-(4-fluorophenoxy)-2-(3-pyridylmethyl)-1H-isoindole-1-one], for which the half-inhibitory concentration (IC50) in data set [2] (setting [6]) was determined as 36 nM.
In the case of `O=c1c2cc(Oc3ccc(Cl)cc3)ccc2ccn1Cc1cccnc1` [compound 128, 7-(4-chlorophenoxy)-2-(3-pyridylmethyl)-1 (2H)-isoquinolinone], the half-inhibitory concentration (IC50) in data set [2] (setting [6]) is 18 nM.
Turning to `O=c1c2cc(Oc3ccc(Cl)cc3)ccc2ccn1-c1cccnc1` [compound 130, 7-(4-chlorophenoxy)-2-(3-pyridyl)-1 (2H)-isoquinolinone], the median effective dose (ED50) in data set [3] worked out at 0.018 mg/kg.
Take `O=c1c2cc(Oc3ccc(Cl)cc3)ccc2ncn1Cc1cccnc1` [compound 131, 6-(4-chlorophenoxy)-3-(3-pyridylmethyl)-4 (3H)-quinazolinone]: the IC50 in data set [2] (setting [6]) stood at 31 nM.
On to `O=c1c2cc(Cl)ccc2nnn1CCCn1ccnc1` [formula (A)], for which the “thromboxane synthetase enzyme inhibition” value in data set [5] was “inhibits thromboxane synthetase enzyme”.
